Tests used:
[1] = change in body weight during dermal application; conditions: after 4 weeks of application, 3 mg/mouse/day dermal
Method: Experiments were carried out using 24 male C57BL/6N mice aged 6 weeks, which were purchased from OrientBio Inc., acclimated for two weeks in a laboratory environment, and then divided into a total of three groups (n=5) of a negative control (CON), a positive control (MXD) and a nonanal group (NN). An animal laboratory was maintained at 21±2.0° C., a relative humidity of 50±5%, on a 12-hour day/night cycle. During the experimental period, a general solid feed (chow) and water were freely offered to the mice.
To investigate a hair development effect, an 8-week-old mouse with telogen-phase hair, in which a dorsal skin color was pink, were used. The dorsal hair of the mouse was removed using a clipper for a mouse, and the sample was applied daily at 4 p.m. for 4 weeks. The test material nonanal (3 mg/mouse/day) and the control drug Minoxidil (3 mg/mouse/day) were applied after being dissolved in the vehicle (ethanol:water:propylene glycol=5:3:2), and only the vehicle was applied to the negative control group.
A body weight of the experimental animal from immediately before the application of an agent for hair development to the end of the application was measured weekly.

telogen-phase hair = assay: hair development state and hair length in shaved mice; type: in vivo, C57BL/6N mice; conditions: dermal 3 mg/mouse/day
Method: To visually examine a hair growth state, 1, 2, 3, and 4 weeks after the application started, the experimental animals were slightly anesthetized with ether, and a dorsal region was photographed. To evaluate the degree of hair growth, the hair length was measured using a ruler.

hair follicles = assay: histological analysis of dorsal skin; type: in vivo, C57BL/6N mice; conditions: 4 weeks of application
Source text: The experimental animals were sacrificed after four weeks of the application, and a dorsal skin tissue specimen was extracted from the test material-applied region using scissors and forceps, and then fixed with formalin. By steps, the resulting specimen was dehydrated with an alcohol and xylene, embedded in paraffin, sliced into a 5-μm fragment using a microtome, and treated again with an alcohol and xylene to remove paraffin. After hematoxylin-eosin staining, a histological change in hair follicle tissue was observed using an optical microscope. The hair development cycle was evaluated by a pathologist, the number and diameter of hair follicles were measured using an optical microscope, and the number of hair follicles in the test group was measured under a 40× optical microscope.

β-catenin [2] = assay: Western blot of dorsal skin tissue; type: in vivo, mouse; conditions: Western blotting
Method: A predetermined amount of skin tissue was homogenized with liquid nitrogen and a lysis buffer using a mortar and centrifuged at 13,000×g and 4° C. for 20 minutes to obtain an intermediate layer, and then a protein was quantified by the Bradford method. 50 μg of the protein was subjected to electrophoresis on an SDS polyacrylamide gel and electroblotted onto a PVDF hyperfilm, and then reacted with a β-catenin or β-actin antibody (Cell Signaling Technology, Danvers, Mass., USA). A signal of each protein was visualized using a chemiluminescent detection system (Amersham), and then a band thickness was quantified using the Quantity One Analysis Software (Bo-Rad Laboratories).

Cyclin D1 = assay: q-PCR gene expression in dorsal skin tissue; type: in vivo, mouse; conditions: 4 weeks
Method: (§1) To quantify total RNA in skin tissue of the experimental animals, 1 mL of a TRIzol solution was added to 50 to 100 mg of skin tissue and homogenized, and then centrifuged at 4° C. and 12,000×g for 10 minutes. The supernatant was transferred to a new tube, 200 μl of chloroform was added, and then the resulting mixture was vigorously shaken. This process was repeated twice, then the supernatant was transferred to a new tube, in which isopropanol and the supernatant were added in a ratio of 1:1. The resulting mixture was shaken 10 times, and maintained at room temperature for 10 minutes and centrifuged at 12,000×g and 4° C. for 10 minutes to remove the supernatant. Then, 1 ml of 70% ethanol was added to the remaining pellet and centrifuged at 7,500×g and 4° C. for 5 minutes. Following the removal of ethanol, a tube containing the RNA pellet was dried at room temperature for 5 minutes, and the RNA pellet was dissolved in nuclease-free water. Concentrations of the extracted RNA specimens at 260 nm and 280 nm wavelengths were measured using a UV/VIS spectrophotometer (Beckman Coulter, DU730), and agarose gel electrophoresis was performed to confirm the integrity of the RNA specimens.
(§2) Following the isolation of RNA, cDNA was synthesized by performing reverse transcription using an oligo dT primer and a Superscript reverse transcriptase (Gibco BRL, Gaithersburg, Md., USA). To measure expression levels of genes, real-time q-PCR was performed using SYBR Green (Bio-Rad, Hercules, Calif., USA), and the instrument used was a CFX Connect™ Real-Time PCR Detection System (Bio-Rad).
(§3) For real time PCR, 2 μL of cDNA, 10 μL of a 2× SYBR mix, 1 μL each of a forward primer and a reverse primer (10 to 20 pmol/μL) were added, and then, H2O was filled to the final volume 20 μL. A PCR extension step was performed as follows, and 35 extension cycles was performed. The extension was performed at 95° C. for 1 minute for hot start, at 95° C. for 15 seconds for denaturation in the extension step, at 55° C. for 30 seconds for annealing, and at 72° C. for 1 minute for extension. After all cycles were completed, to identify primer specificity, melting curve analysis was performed.
(§4) Change in expression of a β-catenin signaling material known as a mechanism for promoting hair development in skin tissue was analyzed by q-PCR analysis on dorsal skin tissue of a mouse to which the test material was applied for 4 weeks.

[3] = tested on: Lymphoid enhancer factor (LEF); assay: q-PCR gene expression in dorsal skin tissue; type: in vivo, mouse; conditions: 4 weeks
Method: as §1, §2, §3, §4

T-Cell factor (TCF) = assay: q-PCR gene expression in dorsal skin tissue; type: in vivo, mouse; conditions: 4 weeks
Method: as §1, §2, §3, §4

β-catenin [4] = assay: q-PCR gene expression in dorsal skin tissue; type: in vivo, mouse; conditions: 4 weeks
Method: as §1, §2, §3, §4

rats = conditions: oral; cited from earlier work
[5] = clinical studies, 1% solution; cited from earlier work
diarrhea-induced mice = conditions: cited from earlier work
rabbits = conditions: transdermal; cited from earlier work

| SMILES | body weight, difference between test groups [1] | hair length at three weeks (telogen-phase hair; 3 weeks) | visual hair growth after 4 weeks (telogen-phase hair; 4 weeks, vs negative control) | increase in hair length compared with negative control (telogen-phase hair; after four weeks, p<0.001) | visual hair growth (onset) (telogen-phase hair; weekly photographs) | increase in number of hair follicles compared with negative control (hair follicles) | microscopy of hair follicles (hair follicles) | increase in hair follicle diameter compared with negative control (hair follicles; image analysis) | increase in β-catenin protein expression compared with negative control (β-catenin [2]) | β-catenin protein expression effect compared with Minoxidil group (β-catenin [2]) | cyclin D1 gene expression compared with negative control (Cyclin D1) | LEF gene expression compared with negative control [3] | TCF gene expression compared with negative control (T-Cell factor (TCF)) | β-catenin gene expression compared with negative control (β-catenin [4]) | lethal dose 50% (LD50 value) (rats) | dermal irritation or sensitization reaction [5] | inhibition of diarrhea (diarrhea-induced mice) | LD50 value (rabbits) |
| --- | --- | --- | --- | --- | --- | --- | --- | --- | --- | --- | --- | --- | --- | --- | --- | --- | --- | --- |
| Nc1cc(N2CCCCC2)nc(N)[n+]1[O-] [Minoxidil] | no significant difference |  |  |  |  |  |  |  |  |  |  |  |  |  |  |  |  |  |
| CCCCCCCCC=O [nonanal] |  | significantly increased | hair grew more evenly and fully in more individuals than that in the negative control group | 434% | from three weeks of the application, hair began to grow | 166% | hair follicles elongated to come out of the skin | 38% | 71% | superior to that of the Minoxidil group | significantly increased | significantly increased | significantly increased | significantly increased | 5,000 mg/kg | no dermal irritation or sensitization reaction | significant effect in inhibition of diarrhea | 5,000 mg/kg |
